# Source: patent publication US11090285B2, “Treatment of circadian rhythm disorders” (Vanda Pharmaceuticals Inc., priority 2013, dated 2021)
# Entries after “also recorded” stand apart in the source; their conditions may differ.
# Experiments:
# [1] = tmax after administration; set-up: species or system human; conditions: in vivo
# Procedure: The ability to administer tasimelteon as little as about one hour prior to sleep time is advantageous because it allows for avoidance of pre-sleep time soporific effects, because it allows for administration of higher doses that might have greater soporific effects, and because it allows for pharmacologic intervention at a different phase of the sleep cycle than if it were administered earlier. Without wishing to be bound to any particular theory, it appears that the ability to administer tasimelteon so close to sleep time is a function of its tmax, which is approximately one-half hour. Melatonin, on the other hand, which has a tmax of approximately 2 hours or more, is administered several hours before sleep time, which can cause premature sleepiness; to avoid this soporific effect, melatonin is sometimes administered at sub-optimal doses.
# Non-24 patients = assay: Entrainment by peak aMT6s level and beta blocker use (clinical studies); assay type: in vivo, human
# Procedure: Results of clinical study also show a strong correlation between endogenous melatonin and efficacy of tasimelteon in entraining patients to a 24 hour circadian rhythm. The following table (Table 3A) compares the peak aMT6s levels in the 24 entrained and 23 non-entrained patients.
# Data from these studies currently available also indicate that beta blocker therapy is […] related to efficacy of tasimelteon, i.e., patients receiving beta blocker therapy were less likely to become entrained than patients who were not.
# [2] = test system: blind individuals with Non-24; assay: RESET Study, randomized withdrawal, maintenance of effect; assay type: in vivo, human
# Procedure: Patients were treated with tasimelteon for at least twelve weeks during an open-label run-in phase during the SET Study. Patients who responded to tasimelteon treatment during the run-in phase were then randomized to receive either placebo or tasimelteon (20 mg/day) for 2 months.
# The primary endpoint of the RESET Study was the maintenance of effect as measured by entrainment of the melatonin (aMT6s) rhythm.
# The RESET study also assessed a number of secondary endpoints including maintenance of entrainment of the cortisol rhythm and a range of sleep and wake parameters including LQ-nTST (total nighttime sleep in the worst 25% of nights), UQ-dTSD (total daytime sleep duration in the worst 25% of days) and MoST (midpoint of sleep timing from both nighttime and daytime sleep).
# [3] = Solubility and pH of saturated solution; assay type: physicochemical
# Procedure: Tasimelteon is a white to off-white powder with a melting point of about 78° C. […] Tasimelteon has 2-4 times greater affinity for MT2R relative to MT1R.
# [4] = RESET, higher number indicates improvement
structure (smiles),measurement,setting,value
"CCC(=O)NC[C@@H]1C[C@H]1c1cccc2c1CCO2 (relative stereo) [Tasimelteon, trans-N-[[2-(2,3-dihydrobenzofuran-4-yl)cycloprop-1yl]methyl]propanamide]",Tmax,[1],approximately one-half; also recorded: about one-half
same,Entrained patients,Non-24 patients; Peak aMT6s <1500 ng/hr,12 (41%)
same,Non-entrained patients,Non-24 patients; Peak aMT6s <1500 ng/hr,17 (59%)
same,Entrained patients,Non-24 patients; Peak aMT6s <2000 ng/hr,13 (38%)
same,Non-entrained patients,Non-24 patients; Peak aMT6s <2000 ng/hr,21 (62%)
same,Entrained patients,Non-24 patients; Peak aMT6s ≥1500 ng/hr,12 (67%)
same,Non-entrained patients,Non-24 patients; Peak aMT6s ≥1500 ng/hr,6 (33%)
same,Entrained patients,Non-24 patients; Peak aMT6s ≥2000 ng/hr,11 (85%)
same,Non-entrained patients,Non-24 patients; Peak aMT6s ≥2000 ng/hr,2 (15%)
same,Entrained patients,Non-24 patients; Peak aMT6s: All (47 patients),24 (51%)
same,Non-entrained patients,Non-24 patients; Peak aMT6s: All (47 patients),23 (49%)
same,Entrained patients,Non-24 patients; Taking Beta Blocker: No,24
same,Non-entrained patients,Non-24 patients; Taking Beta Blocker: No,19
same,Entrained patients,Non-24 patients; Taking Beta Blocker: Yes,0
same,Non-entrained patients,Non-24 patients; Taking Beta Blocker: Yes,4
same,patients who responded to therapy,Non-24 patients; baseline aMT6s excretion rate >2000 ng/hr,Eleven of thirteen
same,maintenance of entrainment (cortisol),"[2]; 20 mg/day, RESET",80.0%
same,Maintenance of entrainment (aMT6s),"[2]; 20 mg/day, RESET primary endpoint",90.0%
same,LQ-nTST (LS mean minutes),[2]; [4],-6.6 min
same,MoST (LS mean minutes),[2]; [4],19.8 min
same,UQ-dTSD (LS mean minutes),"[2]; RESET, lower number indicates improvement",-9.6 min
same,"LQ-nTST (LS mean minutes), Difference",[2]; tasimelteon vs placebo,67.2 min
same,"MoST (LS mean minutes), Difference",[2]; tasimelteon vs placebo,36.0 min
same,"UQ-dTSD (LS mean minutes), Difference",[2]; tasimelteon vs placebo,-59.4 min
same,"maintenance of entrainment (cortisol), Difference",[2]; tasimelteon vs placebo,60.0%
same,effect of pH on aqueous solubility,[3],practically unaffected by pH
same,native pH of a saturated solution in water,[3],8.5
same,solubility in organic solvents,"[3]; 95% ethanol, methanol, acetonitrile, ethyl acetate, isopropanol, PEG-300 and PEG-400",very soluble or freely soluble
same,solubility in water,[3]; water,only slightly soluble
